Here are results for three compounds from patent publication US11229652B2, “Treatments for autoimmune disease” (THE PROVOST, FELLOWS, FOUNDATION SCHOLARS, AND THE OTHER …, priority 2014, dated 2022).

For series [1], the target named is queuine-insertase enzyme complex (Homo sapiens, UniProt Q9BXR0). Kind of series: [14C] guanine displacement assay (queuine-insertase substrate). The class given is biochemical. An excerpt: The skilled reader will be aware of methods for determining whether or not a particular molecule is a substrate for the queuine-insertase enzyme complex. For example, molecules capable of acting as a queuine-insertase enzyme complex substrate may be identified by use of a displacement assay as described below (FIG. 1):
Production of [8-^14C] Guanine Labeled tRNA (tRNA*)
Before adding the 8-[^14C] guanine solution to the reaction the solution was neutralised with an equal volume (vol/vol) 0.01 M NaOH, as the [8-^14C] Guanine is supplied in 0.01 M HCl aqueous solution. A stock solution of yeast tRNA from Saccharomyces cerevisiae was made to a concentration of 2 absorbance units (260 nm) in ultrapure nuclease-free water. The recombinant Escherichia coli (E. coli) tRNA guanine transglycosylase enzyme (E. coli TGT) containing an N-terminal polyhistidine tag was produced in BL21 BL21(DE3) tgt:Kmr cells as described previously (Boland et al., 2009).
The reaction was incubated for 2 h at 37° C. After incubation the reaction was made up to 400 μL with buffer. […] The tRNA* pellet was resuspended in 20 μL nuclease-free water and the concentration measured spectrophotometrically at A260. […]
After incubation the reaction was loaded onto the column and spun at 0.1×g for 10 seconds. […] The vials containing the flow-through and washes are counted for displaced [^14C] guanine. […]

In series [2] the target is T1, HPRT (Homo sapiens, UniProt P00492).
T1 sequence (P00492 1-218): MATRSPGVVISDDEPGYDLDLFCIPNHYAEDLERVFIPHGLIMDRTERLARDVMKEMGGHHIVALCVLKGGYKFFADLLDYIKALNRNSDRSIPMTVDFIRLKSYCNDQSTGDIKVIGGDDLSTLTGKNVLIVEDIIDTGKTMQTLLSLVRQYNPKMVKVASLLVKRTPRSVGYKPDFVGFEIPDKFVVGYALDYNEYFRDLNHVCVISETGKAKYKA
Kind of series: HPRT assay (substrate or inhibitor of HPRT). In kind it is biochemical. The conditions noted are these: in vitro, FIG. 2. From the text:
Similarly, the skilled reader will be aware of methods suitable for determining whether a compound is a substrate or inhibitor of HPRT. For example, molecules that are […] for HPRT may be identified by use of the following assay:
Assay to Evaluate Compounds as Substrates or Inhibitors of the Hypoxanthine-Guanine Phosphoribosyltransferase Enzyme or ‘HPRT Assay’ (FIG. 2).
Preparation and Equilibration of Column:
Dowex-1×8, mesh size 200-400, was weighed out in a sterile 50 ml tube and washed 3 times with aqueous 1 M HCl to charge the resin. The resin was then washed 5-6 times with (20 mls each) Milli-Q H2O until a neutral pH was reached. Columns (Bio-rad 10 mL plastic columns) were set up with 1 mL of wet Dowex (wet mix applied, allowed to settle and more applied until a packed volume of 1 mL was reached). The packed resin was rinsed with 10 volumes (v/v) milli-Q H2O to ensure that a neutral pH and consistent packing was achieved.
HPRT Reactions are set up in 100 μL volume in triplicate with the following components: […]
After inactivation, the reactions were cooled to room temperature (using ice), before being applied to a 1 mL packed resin column of Dowex-1×8, mesh size 200-400. […] 15 mL of scintillation cocktail (Ecoscint A) was added and vials counted to evaluate the level of conversion of [8-^14C]-guanine to GMP. […]

A further series deals with wild-type T cells. Put plainly: Proliferation of wild-type cells. In kind it is cell-based. Particulars: 100 μM, FIG. 4a. From the text:
(§1) FIGS. 4a, 4b, 4c, and 4d depict the molecules effects on total percentage of proliferation in wild-type spleenocytes, HPRT knockout spleenocytes, HPRT:TGT double knockout spleenocytes, and wild-type versus single TGT knockout spleenocytes respectively;

The next series concerns TGT KO cells. Put plainly: Proliferation of TGT knockout cells. The class given is cell-based. Particulars: 100 μM, FIG. 4d.
Source text: as §1

Series [3] has as its system HPRT:TGT double knockout spleenocytes. Kind of series: Proliferation of TGT:HPRT double knockout cells. Particulars: 100 μM, FIG. 4c. In kind it is cell-based.
Source text: as §1

In series [4] the test system is chronic monophasic EAE disease. Kind of series: Chronic monophasic EAE disease in mice. In kind it is in vivo, mice (C57BL/6). How it is done: To assess the potential of these compounds in vivo, a chronic monophasic EAE disease in mice was induced before treatment with the new chemical entity (NCE). EAE Disease was induced in 8-10 week old female mice (C57BL/6) by sub-cutaneous (s.c.) injection of 200 II emulsion containing 150 μg […] peptide (Genscript) in Complete Freund's Adjuvant (CFA; containing 5 mg/ml heat-inactivated Mycobacterium tuberculosis). On the same day, mice were administered 500 ng Pertussis Toxin (Kaketsuken, Japan) intraperitoneally (i.p.) and again two days later. Disease severity was recorded every 24 hours: 0-Normal; 1-flaccid tail; 2-imparied/wobbly gait; 3-complete hind limb weakness; 4-hind limb and forelimb paralysis; 5-moribund state/dead. Protocol is based on the Nature Protocols for Active induction of experimental allergic encephalomyelitis, which includes the scoring methodology: • Stromnes I M, Goverman J M (2006) Active induction of experimental allergic encephalomyelitis. Nat Protoc. 1(4):1810-9.
The EAE score relates to an assessment of disease progression with respect to issues like tail paralysis and limb paralysis, a higher score is a worse condition. A score of 1 indicates decreased tail tone, a score of 2 indicates hind leg weakness (paraparesis), a score of 3 indicates hind limb paralysis and/or incontinence. Note that the untreated animals have a continuous and progressive worsening of disease.
This contrasts with the sustained drop in body weight of non-treated EAE diseased animals to a level 86.4% that of controls at 21 dpi (17.8 grams versus 20.6 grams). Motor coordination and hind-limb strength were also evaluated by the ability of mice to cross a horizontal bar (FIG. 7). Non-diseased animals crossed the bar with an average time of 4.3±0.57 seconds.

The target in series [5] is T1, HPRT. The conditions noted are these: higher for HPRT; cited from earlier work.
In series [6] the test system is Experimental Autoimmune Encephalomyelitis; EAE. The conditions noted are these: earlier work; cited from earlier work.
The next series concerns DNA. Particulars: incorporated into DNA after HPRT activity; cited from earlier work.

queuine-insertase enzyme complex, sequence (Q9BXR0 whole entry): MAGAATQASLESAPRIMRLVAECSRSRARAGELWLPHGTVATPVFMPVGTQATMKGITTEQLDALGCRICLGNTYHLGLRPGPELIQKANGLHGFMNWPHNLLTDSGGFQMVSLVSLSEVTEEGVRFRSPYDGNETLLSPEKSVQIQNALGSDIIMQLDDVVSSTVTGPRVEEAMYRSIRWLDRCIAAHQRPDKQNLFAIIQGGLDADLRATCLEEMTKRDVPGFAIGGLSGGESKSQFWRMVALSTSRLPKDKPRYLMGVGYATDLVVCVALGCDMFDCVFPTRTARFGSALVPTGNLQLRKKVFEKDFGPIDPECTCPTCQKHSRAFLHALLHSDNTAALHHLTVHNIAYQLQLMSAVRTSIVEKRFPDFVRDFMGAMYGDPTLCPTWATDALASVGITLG
queuine-insertase enzyme complex, sequence (Q9H974 whole entry partner): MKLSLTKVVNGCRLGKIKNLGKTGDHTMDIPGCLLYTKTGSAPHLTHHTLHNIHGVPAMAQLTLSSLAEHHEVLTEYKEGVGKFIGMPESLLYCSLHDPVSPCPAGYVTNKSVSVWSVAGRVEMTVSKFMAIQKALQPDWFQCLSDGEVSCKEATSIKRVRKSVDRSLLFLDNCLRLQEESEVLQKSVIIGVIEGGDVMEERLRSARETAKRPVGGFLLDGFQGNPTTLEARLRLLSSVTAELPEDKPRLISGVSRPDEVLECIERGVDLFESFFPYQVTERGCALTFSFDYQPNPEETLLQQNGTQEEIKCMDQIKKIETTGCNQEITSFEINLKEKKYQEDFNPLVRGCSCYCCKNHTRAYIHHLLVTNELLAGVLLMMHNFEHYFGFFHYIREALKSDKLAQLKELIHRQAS

As for `Cl.Nc1nc2[nH]cc(CNCCCc3ccccc3)c2c(=O)[nH]1` [Compound I, N-((2-amino-4-oxo-4,7-dihydro-3H-pyrrolo[2,3-d]pyrimidin-5-yl)methyl)-3-phenylpropan-1-aminium chloride], the “substrate for TGT (queuine-insertase enzyme complex)” value in series [1] (in vitro, recombinant TGT enzyme, FIG. 1) is “substrate for TGT”. Also, at HPRT [2], the “substrate or inhibitor of HPRT” value was “not to be a substrate or inhibitor”. For the same compound, the proliferation result in the series on wild-type T cells is “less than 50%”. Further, the effect on proliferation entry is on record as “lack of effect” with TGT KO cells and “essentially unaffected” in [3]. For the same compound, the “EAE score outcome after 4 daily treatments” value in series [4] (EAE mice, 30 mg/kg, i.p., FIG. 5) is “disease free”. For the same compound, the “time to reversal of symptoms” value in series [4] (EAE mice, 30 mg/kg, i.p., highest dosage, FIG. 5) was ≤ 24 h. For the same compound, the EAE disease progression result in [4] (EAE mice, lower doses, FIG. 5) was “disease progression was halted and reversed”. Besides, the “motor coordination and hind-limb strength (horizontal bar crossing)” value in [4] (EAE mice, within 4 treatments, FIG. 7) was “fully restored the performance of EAE diseased mice to control levels”. Besides, the “weight level relative to controls” value in series [4] (treated EAE mice, 21 days post inoculation, FIG. 6) is 96.6%. For the same compound, the body weight in series [4] (treated EAE mice, 21 days post inoculation, controls 20.6 grams, FIG. 6) is reported as 19.9 grams.

Consider `Nc1nc2nc[nH]c2c(=S)[nH]1` [Example 6TG, 6-thioguanine], for which the “substrate potency for HPRT relative to queuine-insertase enzyme complex” value on HPRT [5] is on record as “approx. 10 fold”. The “effect on the murine model of chronic MS (EAE)” value in series [6] is “dramatic effect”. Also, the genotoxicity entry with DNA is “genotoxic”.

On to `Nc1nc2[nH]cc(CN[C@H]3C=C[C@H](O)[C@@H]3O)c2c(=O)[nH]1` [queuine, 2-amino-5-((((1S,4S,5R)-4,5-dihydroxycyclopent-2-en-1-yl)amino)methyl)-3,7-dihydro-4H-pyrrolo[2,3-d]pyrimidin-4-one, reference compound], for which the “maximum displacement of [14C] guanine” value in series [1] (200 μM compound, background ≤10 pmol, ≥50 pmol counts as positive substrate) came out at 240 pmol.
